Experimental data published in patent publication US9309187B2, “EP2 receptor agonists” (TAKEDA GMBH, priority 2012, dated 2016).

Legend:
[1] = biological target: T1, human prostanoid receptor EP2 (Homo sapiens, UniProt P43116); assay: EP2 cAMP release assay in CHOp6CreLuc-huEP2 cells (CRE-luciferase readout); format: cell-based; conditions: CHOp6CreLuc-huEP2 cells, 4 hours at 37° C.; reported as range bins; read-out: EP2 cAMP release assay pEC50 (-log EC50) (converted)
T1 construct: expressed in transfected cells; host or cells: CHO-K1 (CHOp6CreLuc-huEP2)
T1 sequence (P43116 whole entry): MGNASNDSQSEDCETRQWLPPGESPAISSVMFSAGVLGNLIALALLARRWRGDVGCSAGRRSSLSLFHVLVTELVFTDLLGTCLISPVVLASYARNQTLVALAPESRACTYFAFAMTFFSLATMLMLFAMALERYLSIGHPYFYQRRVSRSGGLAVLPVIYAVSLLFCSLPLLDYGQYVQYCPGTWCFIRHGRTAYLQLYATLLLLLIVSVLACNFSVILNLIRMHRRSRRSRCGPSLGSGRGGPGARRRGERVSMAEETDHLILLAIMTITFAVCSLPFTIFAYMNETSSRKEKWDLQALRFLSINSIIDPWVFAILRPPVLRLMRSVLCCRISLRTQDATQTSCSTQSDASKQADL
Description: Method for Measuring cAMP Release in Human EP2 Stably Transfectant Cells:
The potency and efficacy of EP2 agonists have been determined via measuring cAMP release in stably transfectant CHO-K1 cell expressing the human prostanoid receptor EP2 and luciferase enzyme regulated via a 6 times CRE (cAMP response element) containing transcriptional promoter. CHOp6CreLuc-huEP2 cells were seeded into 384-well plate (1000 cells per well) in DMEM/F12 (Dulbecco's Modified Eagle Medium/Nutrient Mixture F12) cell culture medium containing 2% FCS (Fetal Calf Serum) and 500 μg/ml G418 24 hours prior to the experiment. Test compound was added as serial dilutions while keeping the final DMSO concentration constant in each well. […] Cells were incubated together with test compound or butaprost for 4 hours at 37° C. The cAMP release was determined indirectly via luciferase activity that directly correlated to the amount of luciferase enzyme expressed in response to cAMP regulated promoter activity. The luciferase activity was determined by addition of luciferin containing buffer and subsequent quantification of resulting luminescence. Each sample was measured in quadruplicates per experiment and half-maximal effective concentration (EC50) and relative maximal effect compared to butaprost was determined from 3 independent experiments with GraphPad Prism Software. A compound that achieved over 80% of the maximal effect of butaprost was considered as full agonist.
For the following compounds the potency was determined in the cAMP release assay applying human EP2 transfectant CHOp6CreLuc-huEP2 cells. […] The numbers of the compounds correspond to the examples numbers.
EP2 cAMP Release Assay: pEC50

[2] = system: TNFalpha release in human peripheral blood mononuclear cells (PBMC) stimulated with LPS; assay: Inhibition of LPS induced TNFalpha release in human PBMCs; format: cell-based; conditions: 1 ng/mL LPS, 24 hours, reported as range bins, read-out: Inhibition of LPS induced TNFalpha release in human PBMCs pIC30 (-log IC30)
Description: Method for Measuring the Inhibition of TNFalpha Release in Human Peripheral Blood MononuClear Cells (PBMC) Stimulated with LPS:
Assay was performed with some modifications of the method described by Hatzelmann and Schudt (Hatzelmann and Schudt 2001, J. Pharmacol. Exp. Therapeutics 297: 267-279) and the protocol “drawing of venous blood from healthy volunteers for in vitro studies” was approved by the ethics committee of the Landesärztekammer Baden Württemberg in Stuttgart. Peripheral blood mononuclear cells (PBMCs) were isolated from venous blood with the anticoagulant citrate from healthy donors according to standard protocols using Ficoll. The cell layer of PBMCs were washed twice with phosphate buffer solution and equilibrated at room temperature for 60 minutes. 500,000 PBMCs in 180 microL RPMI1640 cell medium supplemented with 10% FCS, NEAA (Non-essential-amino-acids), L-Glutamine and Sodium Pyruvate per sample were pre-incubated with 10 microL of a serial dilution of test compound or piclamilast as positive control for 60 min. at 37° C. After pre-incubation blood samples were stimulated by the addition of 10 microL LPS (Sigma, Aldrich) per sample resulting in a final concentration of 1 ng/mL LPS and a final volume of 200 microL. Cells were incubated for 24 hours at 37° C. TNFalpha levels were determined from cell supernatant that was obtained by a centrifugation step and transferring the supernatant to a new 96-well plate. Content of TNFalpha was determined via alphaLISA Technology according to manufacture protocol (Perkin Elmer).
(§1) PBMC samples that were not stimulated with LPS were used as control and set for 100% inhibition. PBMC samples that were stimulated with LPS and solvent instead of test compound were set as 0% inhibition. Percent inhibition was calculated based on these controls for each sample and since most compounds achieved saturating maximal inhibition of 60% a pIC30 value was calculated with GraphPad Prism Software.
For the following compounds the inhibitory values of TNFalpha release [determined as −log IC30=pIC30] in human PBMCs between 5.0 and 5.9, between 6.0 and 6.9, between 7.0 and 7.9 and between 8.0 and 9.0 have been determined. The numbers of the compounds correspond to the examples numbers.
Inhibition of LPS Induced TNFalpha Release Assay in Human PBMCs: pIC30

[3] = biological target: T2, human EP2 receptor (Homo sapiens, UniProt P43116); assay: EP2 binding assay (PGE2 displacement); conditions: recombinant human EP2 membranes, 1 nanoM [3H]-PGE2; reported as range bins; read-out: EP2 binding (PGE2 displacement) pIC50 (-log IC50) (converted)
T2 construct: purchased Millipore
T2 sequence (P43116 whole entry): as above
Description: Method for Measuring Inhibition of PGE2 Binding to the Human Prostanoid Receptor EP2:
Human EP2 receptor equilibrium competition binding assays were performed according to Abramovitz et al. (M. Abramovitz et al. 2000, Biochimica et Biophysica Acta 1483: 285-293) in a final incubation volume of 100 microL in 50 milliM Bis-Tris, pH6.0 in 96-well plates. Radiolabelled Prostaglandin E2 (PGE2) (1 nanoM [^3H]-PGE2 purchased from Perkin Elmer) was added to the assay as competitive ligand. Test compounds stored as Dimethylsulfoxide (DMSO) stock solutions were added to the assay in serial dilutions in assay buffer while keeping the final DMSO concentration equal in each sample. The reaction was initiated by addition of membrane proteins harbouring human EP2 receptor (ChemiSCREEN™ membrane preparation recombinant human EP2 prostanoid receptor that was purchased by Millipore). Total binding was determined in the absence of test compound or PGE2 and non-specific binding was determined in the presence of 1 microM PGE2. Incubations were conducted for 60 minutes at room temperature until equilibrium was reached and terminated by filtration through GF/B filter (Perkin Elmer) prewetted with 0.3% PEI solution. Unbound radiolabelled PGE2 was removed by 8 wash cycles with the same buffer under ice-cold conditions and the filters containing the residual radioactivity were dried for 60 minutes at 60° C. In order to measure the filter bound radioactivity, 40 microL microscint (scintillation liquid) was added to each filter and the chemiluminescence was determined by TopCount-NTX™. The specific binding was calculated by subtracting non-specific binding from each sample. Percent inhibition by test compounds was calculated based on specific binding without test compound. Each sample was measured in triplicates per experiment and for the calculation of the pIC50 at least 2 independent experiments were performed. Determination of half maximal inhibiting concentration (IC50) was performed with GraphPad Prism Software.
The numbers of the compounds correspond to the examples numbers.
EP2 Binding Assay (PGE2 Displacement): pIC50 Values

[4] = system: TNFalpha release in human whole blood stimulated with LPS; assay: Inhibition of LPS induced TNFalpha release in human whole blood; format: cell-based; conditions: 1 microg/mL LPS, 4 hours, reported as range bins, read-out: Inhibition of LPS induced TNFalpha release in human whole blood pIC30 (-log IC30)
Description: Method for Measuring the Inhibition of TNFalpha Release in Human Whole Blood Stimulated with LPS:
Assay was performed with some modifications of the method described by Hatzelmann and Schudt (Hatzelmann and Schudt (2001) JPET 297: 267-279) and the protocol “drawing of venous blood from healthy volunteers for in vitro studies” was approved by the ethics committee of the Landesärztekammer Baden Württemberg in Stuttgart.
Heparinised venous blood was equilibrated to assay conditions for 1 hour at room temperature upon blood drawing. Immediately thereafter, 200 microL whole blood per sample were pre-incubated with 25 microL of a serial dilution of test compound or piclamilast as positive control for 30 min. at 37° C. After pre-incubation blood samples were stimulated by the addition of 25 microL lipopolysaccharide (LPS) (Sigma, Aldrich) per sample resulting in a final concentration of 1 microg/mL LPS and a final volume of 250 microL. Cells were incubated for 4 hours at 37° C. TNFalpha levels were determined from plasma that was obtained by a centrifugation step and transferring the supernatant to a new 96-well plate which was again centrifuged and clear plasma supernatant was used for the measurement of TNFalpha via alphaLISA Technology according to manufacture protocol (Perkin Elmer).
as §1, with “Whole blood” for “PBMC”
For the following compounds the inhibitory values of TNFalpha release [determined as −log IC30=pIC30] in the human whole blood assay between 4.5 and 4.9, between 5.0 and 5.9 and between 6.0 and 6.9 have been determined. The numbers of the compounds correspond to the examples numbers.
Inhibition of LPS Induced TNFalpha Release Assay in Human Whole Blood: pIC30

Row | EC50 [1] | IC50 [3] | SMILES | IC30 [2] | IC30 [4]
1 | 0.00631 to 0.1 nM | 1.26 to 10 nM | O=C(O)/C=C/c1cccc(NC(=O)c2cc(-c3cccc(O)c3)cc3ccccc23)c1 [Example 19, (2E)-3-[3-({[3-(3-hydroxyphenyl)naphthalen-1-yl]carbonyl}amino)phenyl]prop-2-enoic acid] | 12.6 to 100 nM | 126 to 1000 nM
2 | 0.00631 to 0.1 nM | 1.26 to 10 nM | O=C(O)/C=C/c1ccc(F)c(NC(=O)c2cc(-c3cc(O)cc(F)c3)cc3ccccc23)c1 [Example 15, (2E)-3-[4-fluoro-3-({[3-(3-fluoro-5-hydroxyphenyl)naphthalen-1yl]carbonyl}amino)phenyl]prop-2-enoic acid] | 1 to 10 nM | 1260 to 10000 nM
